Test results: US20150164855A1, “KETONE BODIES AND KETONE BODY ESTERS FOR MAINTAINING OR IMPROVING MUSCLE POWER OUTPUT” (priority 2012, published 2015)

Key:
Assay type in all cases: in vivo
[1] = Blood (R)-3-hydroxybutyrate concentration in rats following administration of ketones; settings: for Peak Blood (R)-3-hydroxybutyrate: rats fed sour cream mix containing 2 g ketone in 10 ml water, blood before feeding and after 1, 3 and 6 hours
Procedure: Experiments were carried out to determine the concentration of blood (R)-3-hydroxybutyrate in rats following administration of various ketones. The ketones tested are set out in Table 4 below. The ketones were tasted in the same manner as Ketones 1 to 8 above.
(§1) Rats were each fed with a sour cream mix containing 2 g of a ketone as set out in […] in 10 ml water. Samples of blood from each rat were taken immediately prior to feeding, after 1 hour, 3 hours and 6 hours to determine the blood concentration of (R)-3-hydroxybutyrate. Two controls (Control A and Control B) were also tested by feeding with the same mix without the ketone added. The rats were humanely killed and dissected for visual inspection to determine whether pyloric constriction or other visible changes had occurred.
Blood was extracted and 0.1 ml of whole blood was added to 0.4 ml 3.6% perchloric acid subjected to vortex and then allowed to rest in ice for 30 minutes and then spun. 350 ul of acidic supernatant were then transferred to a new tube and 5 ul phenol red (0.05%), 20 ul 1 M Imidazole pH 7 and 3 M KHCO3 was added to neutralize the solution which was allowed to stand in ice for 30 minutes and then spun. A sample of the neutralized blood extract was then assayed for (R)-3-hydroxybutyrate.

[2] = Uptake of oligomeric ketones into the blood (Example 2)
Procedure: Procedures were carried out to determine the uptake of oligomeric ketones into the blood.

[3] = Visual inspection of dissected rats for pyloric constriction or other visible changes; settings: rats fed 2 g ketone, killed and dissected for visual inspection
Procedure: as §1, with “Samples of blood from each rat were taken immediately prior to feeding, after 1 hour, 3 hours and 6 hours to determine the blood concentration of (R)-3-hydroxybutyrate.” left out

[4] = Single oral dose/response of blood (R)-3-hydroxybutyrate (Example 5); settings: 192, 291, 395 and 573 mg/kg single dose
Procedure: (R)-3-hydroxybutyrate-R-1,3-butanediol monoester was administered in a single dose based on a fixed amount per kg of body weight of the subject to a number of subjects. The blood (R)-3-hydroxybutyrate concentration was determined over a period of time to determine the dose/response relationship between the oral single dose and the blood concentration of (R)-3-hydroxybutyrate. The procedure was repeated with different quantities of (R)-3-hydroxybutyrate-R-1,3-butanediol monoester to provide data on the dose/response relationship for (R)-3-hydroxybutyrate-R-1,3-butanediol monoester when administered at 192 mg/kg, 291 mg/kg, 395 mg/kg and 573 mg/kg.

Molecule | Peak Blood (R)-3-hydroxybutyrate [1] | level of uptake to the blood relative to the linear/other oligomers tested (Ketones 9, 11 and 12) ([1]; rats, 2 g ketone) | blood level of (R)-3-hydroxybutyrate (peak) [2] | level of uptake to the blood relative to the triolide diester oligomer (Ketone 10) ([1]; rats, 2 g ketone) | Symptoms [3] | blood (R)-3-hydroxybutyrate concentration after single oral dose [4]
CC(O)CC(=O)OC(C)CC(=O)OC(C)CC(=O)OCC[C@@H](C)OC(=O)CC(C)OC(=O)CC(C)OC(=O)CC(C)O (stereo partly drawn) [Ketone 10, (R)-1,3-butanediol ditriolide ester] | about 1.5 mM | around 10 times | about 1.5 mM |  |  | 
(R)-3-hydroxybutyrate-(R)-1,3-butanediol [Ketone 8] | 6 mM |  | 6000 µM | around 4 times | No pyloric constriction, no gas | levels not previously reported with other ketones
